For test [1], the target named is T1, D(3) dopamine receptor (Homo sapiens, UniProt P35462). Put plainly: Agonist activity at recombinant human D3 receptor expressing in CHOp cells assessed as receptor mediated stimulation of mitogenesis measured as [3H]thymidine incorporation after 24 hrs by scintillation spectrometry. The format is cell-based. A general note: Uptake of a labelled nucleoside into DNA is a usual measure of proliferation.

The target of test [2] is T1, D(3) dopamine receptor. Put plainly: Displacement of [3H]7-OH-DPAT from human D3 receptor transfected in HEK293 cells measured after 60 mins by liquid scintillation counter. The format is cell-based.
Test [3] has as its target T1, D(3) dopamine receptor. Put plainly: Agonist activity at human D3 receptor transfected in HEK293T cells by BRET based G0 activation assay. The format is cell-based, HEK-293T. On the technique in general: In BRET a luciferase serves as donor, and the signal depends on an acceptor being close.
Test [4] deals with T1, D(3) dopamine receptor. Description: Displacement of [3H]N-methylspiperone from human D3 receptor transfected in HEK293 cells measured after 60 mins by liquid scintillation counter. The format is cell-based. (Displacement assays read how much labelled ligand stays bound in the presence of the test substance.)
For test [5], the species on record is Homo sapiens. Description: Selectivity index, ratio Ki for human D3 receptor to Ki for human D2 receptor using [3H]7-OH-DPAT displacement assay.
For test [6], the species on record is Homo sapiens. Description: Selectivity index, ratio Ki for human D3 receptor to Ki for human D2 receptor using [3H]N-methylspiperone displacement assay.
For test [7], the target named is T2, D(2) dopamine receptor (Homo sapiens, UniProt P14416). Put plainly: biochemical. The class given is cell-based, HEK293.
In test [8] the target is T2, D(2) dopamine receptor. Description: Agonist activity at human D2 receptor transfected in HEK293T cells by BRET based G0 activation assay. The format is cell-based, HEK-293T.
Test [9] has as its target T2, D(2) dopamine receptor. Description: Agonist activity at recombinant human D2 receptor expressing in CHOp cells assessed as receptor mediated stimulation of mitogenesis measured as [3H]thymidine incorporation after 24 hrs by scintillation spectrometry. The format is cell-based.
For test [10], the target named is T2, D(2) dopamine receptor. Description: biochemical. The format is cell-based, HEK293. This is another data set of the same source.

T2 sequence (P14416 whole entry): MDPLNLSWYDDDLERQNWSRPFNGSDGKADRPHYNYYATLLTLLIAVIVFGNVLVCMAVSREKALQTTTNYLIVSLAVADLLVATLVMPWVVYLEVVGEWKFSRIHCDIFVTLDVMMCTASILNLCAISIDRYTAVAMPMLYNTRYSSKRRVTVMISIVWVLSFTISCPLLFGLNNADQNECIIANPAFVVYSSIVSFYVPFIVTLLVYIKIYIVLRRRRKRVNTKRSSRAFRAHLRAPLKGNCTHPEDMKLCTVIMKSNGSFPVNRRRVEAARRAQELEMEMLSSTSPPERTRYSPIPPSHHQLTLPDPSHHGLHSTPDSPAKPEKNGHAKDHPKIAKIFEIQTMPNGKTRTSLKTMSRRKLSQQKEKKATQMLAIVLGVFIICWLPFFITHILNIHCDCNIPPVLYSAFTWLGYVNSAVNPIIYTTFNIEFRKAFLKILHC
T1 sequence (P35462 whole entry): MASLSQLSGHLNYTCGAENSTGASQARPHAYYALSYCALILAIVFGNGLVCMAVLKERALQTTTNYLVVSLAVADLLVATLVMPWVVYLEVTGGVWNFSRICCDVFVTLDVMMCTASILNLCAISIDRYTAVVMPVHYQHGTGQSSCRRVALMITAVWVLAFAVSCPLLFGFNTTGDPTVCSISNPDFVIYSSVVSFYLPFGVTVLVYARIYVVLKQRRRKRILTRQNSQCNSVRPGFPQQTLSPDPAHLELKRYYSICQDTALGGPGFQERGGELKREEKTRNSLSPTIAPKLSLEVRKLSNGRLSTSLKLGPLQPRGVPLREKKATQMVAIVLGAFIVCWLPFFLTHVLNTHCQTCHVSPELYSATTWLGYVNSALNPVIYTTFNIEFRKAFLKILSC

As for `CN(CCCCNC(=O)c1cc2ccccc2[nH]1)[C@@H]1Cc2cccc3[nH]c(=O)n(c23)C1`, the EC50 (commonly the concentration giving half of the maximal effect) worked out at 0.053 µM at D(3) dopamine receptor [1] and 0.0943 µM on D(3) dopamine receptor [3]. In addition, the Ki (in general, a measure of affinity in units of concentration, obtained from inhibition or displacement) came out at 0.0769 µM at D(3) dopamine receptor [2] and 0.337 µM on D(3) dopamine receptor [4].

On to `CCCN(CCC)[C@@H]1Cc2cccc3nc(O)n(c23)C1`, for which, in the test listed under Homo sapiens [5], the Ratio Ki was 2.4.

For `CN[C@@H]1Cc2cccc3[nH]c(=O)n(c23)C1` [SUMANIROLE], the values for the EC50 on D(3) dopamine receptor [1] and at D(3) dopamine receptor [3] were 0.669 µM and 0.186 µM, respectively. Also, the Ki at D(3) dopamine receptor [2] came out at 0.546 µM; on D(3) dopamine receptor [4] it was 6.33 µM.

With `CCCn1c(=O)n2c3c(cccc31)C[C@@H](NC)C2`, the EC50 at D(3) dopamine receptor [1] came out at 0.178 µM; at D(2) dopamine receptor [8] it was 0.0387 µM; at D(3) dopamine receptor [3], 0.0537 µM; on D(2) dopamine receptor [9], 0.549 µM. The Ratio Ki in the test filed under Homo sapiens [6] is 0.25; in the test listed under Homo sapiens [5], 7.5. Also, the Ki amounted to 0.751 µM at D(2) dopamine receptor [7], 0.0995 µM at D(3) dopamine receptor [2], 0.187 µM at D(3) dopamine receptor [4] and 0.0132 µM on D(2) dopamine receptor [10].

Turning to `CCCN[C@@H]1Cc2cccc3c2n(c(=O)n3CCC)C1`, the EC50 at D(3) dopamine receptor [1] is 0.0561 µM; on D(2) dopamine receptor [8], 0.068 µM; at D(3) dopamine receptor [3], 1.42 µM; on D(2) dopamine receptor [9], 0.013 µM. The figures for the Ratio Ki in the test filed under Homo sapiens [6] and in the test filed under Homo sapiens [5] were 0.06 and 2.7, respectively. The Ki at D(2) dopamine receptor [7] was determined as 0.868 µM; at D(3) dopamine receptor [2] it was 0.0217 µM; on D(3) dopamine receptor [4] it was 0.0479 µM; at D(2) dopamine receptor [10] it was 0.00808 µM.

For `CCCN[C@@H]1Cc2cccc3nc(O)n(c23)C1`, the figures for the EC50 on D(3) dopamine receptor [1] and on D(3) dopamine receptor [3] were 0.00081 µM and 0.0183 µM, respectively. For the same compound, the Ki on D(3) dopamine receptor [2] was 0.0255 µM; at D(3) dopamine receptor [4] it was 0.41 µM.

Consider `CN[C@@H]1Cc2cc(C#N)cc3[nH]c(=O)n(c23)C1`, for which the Ki on D(3) dopamine receptor [4] amounted to 27.2 µM; on D(2) dopamine receptor [10] it was 5.12 µM.

For `CCCN(C)[C@@H]1Cc2cccc3[nH]c(=O)n(c23)C1`, the EC50 turned out to be 0.148 µM at D(3) dopamine receptor [1], 0.029 µM on D(2) dopamine receptor [8], 0.0307 µM on D(3) dopamine receptor [3] and 0.0181 µM at D(2) dopamine receptor [9]. In addition, the Ratio Ki is 0.25 in the test filed under Homo sapiens [6] and 8.3 in the test listed under Homo sapiens [5]. Also, the Ki is 1.18 µM at D(2) dopamine receptor [7], 0.104 µM at D(3) dopamine receptor [2], 0.29 µM at D(3) dopamine receptor [4] and 0.0125 µM on D(2) dopamine receptor [10].

On to `N[C@@H]1Cc2cccc3[nH]c(=O)n(c23)C1`, for which the EC50 is 3.4 µM at D(3) dopamine receptor [1], 0.697 µM on D(2) dopamine receptor [8], 1.89 µM on D(3) dopamine receptor [3] and 0.684 µM on D(2) dopamine receptor [9]. The Ratio Ki came out at 0.98 in the test listed under Homo sapiens [6] and 30 in the test filed under Homo sapiens [5]. Besides, the Ki on D(2) dopamine receptor [7] worked out at 12.1 µM; at D(3) dopamine receptor [2] it was 3.39 µM; at D(3) dopamine receptor [4], 11.8 µM; at D(2) dopamine receptor [10] it was 0.114 µM.

Take `CCCCn1c(=O)n2c3c(cccc31)C[C@@H](NC)C2`: the EC50 amounted to 0.022 µM at D(3) dopamine receptor [1], 0.0305 µM on D(2) dopamine receptor [8], 0.0256 µM on D(3) dopamine receptor [3] and 0.083 µM at D(2) dopamine receptor [9]. Also, the Ratio Ki in the test listed under Homo sapiens [6] amounted to 0.03; in the test filed under Homo sapiens [5] it was 11. Further, the Ki at D(2) dopamine receptor [7] worked out at 0.361 µM; at D(3) dopamine receptor [2], 0.142 µM; on D(3) dopamine receptor [4], 0.0103 µM; at D(2) dopamine receptor [10], 0.0128 µM.

In the case of `CCCN(CCC)[C@@H]1Cc2cccc3[nH]c(=O)n(c23)C1`, the EC50 turned out to be 0.00253 µM on D(2) dopamine receptor [8] and 0.0218 µM at D(3) dopamine receptor [3]. Besides, the figures for the Ki at D(3) dopamine receptor [2] and at D(2) dopamine receptor [10] were 0.0271 µM and 0.0114 µM, respectively.

As for `CCCN(CCC)[C@@H]1Cc2cccc3c2n(c(=O)n3CCC)C1`, the EC50 at D(3) dopamine receptor [1] worked out at 0.0037 µM; on D(2) dopamine receptor [8] it was 0.0339 µM; at D(3) dopamine receptor [3] it was 0.0519 µM; on D(2) dopamine receptor [9], 0.0137 µM. In addition, the Ratio Ki in the test listed under Homo sapiens [6] worked out at 0.04; in the test filed under Homo sapiens [5], 1.3. The Ki on D(2) dopamine receptor [7] is 0.146 µM; on D(3) dopamine receptor [2], 0.00339 µM; at D(3) dopamine receptor [4], 0.00605 µM; on D(2) dopamine receptor [10] it was 0.00259 µM.

As to `CN(CCCCNC(=O)c1ccc2c(c1)Cc1ccccc1-2)[C@@H]1Cc2cccc3[nH]c(=O)n(c23)C1`, the EC50 on D(3) dopamine receptor [1] was determined as 0.0119 µM; on D(2) dopamine receptor [8], 0.109 µM; on D(3) dopamine receptor [3] it was 0.125 µM; on D(2) dopamine receptor [9], 0.102 µM. In addition, the Ratio Ki in the test listed under Homo sapiens [6] is 0.29; in the test listed under Homo sapiens [5], 2.3. Besides, the Ki is 3.7 µM at D(2) dopamine receptor [7], 0.0125 µM on D(3) dopamine receptor [2], 1.09 µM at D(3) dopamine receptor [4] and 0.00547 µM on D(2) dopamine receptor [10].

The record behind these values is ChEMBL document CHEMBL3797097 (J Med Chem, 2016).
